# Laboratory results reported in patent publication US20240189442A1, “TARGETING CONJUGATES WITH THERAPEUTIC AGENTS AND OLIGONUCLEOTIDES AND USES THEREOF” (Allygen Group, priority 2021, published 2024).
# pEC50, pIC50: −log10 of the molar value. Non-standard residues stand in square brackets, D forms with d. Primed or numbered codes have the meaning given here. No end group written: not given here. PEG12′ = NH2-(PEG)12 moiety
# What was measured:
# CathepsinB = CathepsinB (Homo sapiens, UniProt P07858); assay: Digestion of the drug-linkers by CathepsinB; type: biochemical; conditions: 125 nM enzyme, 62.5 μM drug-linker, pH 5.5, 37° C., 3 hours
# Method: To simulate the release of drug under physiological conditions, the drug-linkers were subjected to cleavage by CathepsinB, after which an elimination reaction occurred and unmodified drug was released.
# Lyophilized CathepsinB enzyme powder was dissolved in 130 μL of pure water, and divided into 13 tubes of 10 μL each. At this time, the concentration of each tube was 0.15 mg/ml (4.15 μM). Activation buffer (20 mM sodium acetate, 30 mM DTT, 15 mM EDTA, pH 5.5) was then added to a tube of enzyme to activate the enzyme for 1 hour at room temperature. The activated enzyme was diluted to 125 nM with enzyme digestion buffer (25 mM sodium acetate, 1 mM EDTA, pH 5.5). Drug-linkers were added to the activated enzyme to a final concentration of 62.5 μM, and incubated at 37° C. for 3 hours.
# [1] = Stability of Compound of Formula (1) and (2) in buffer; type: physicochemical
# Method: Preparation of 20 mM phosphate buffer with pH=7.4 (in 1 L): 8.0 g sodium chloride, 0.2 g potassium chloride, 7.3 g disodium hydrogen phosphate dodecahydrate, and 0.48 g potassium dihydrogen phosphate was dissolved in water and dilute to 1 L at pH 7.4.
# The buffer was adjusted to pH 9.0, 7.0 and 5.0 with saturated phosphoric acid solution and sodium hydroxide solution. […] The solution pH was adjusted back to 5, and shaken overnight at room temperature (16 h) before testing.
# [2] = Stability of Compound of Formula (1) and (2) in plasma; type: in vitro ADME; conditions: pH 7.4, 0.5 mg/mL
# Method: Preparation of protein precipitation solution: 1 g NaCl was added to 3 mL methanol and 5 mL acetonitrile, stirred for 1 h, and then allowed to stand at room temperature for 1 h before use.
# 200 μL protein precipitation solution was then added to the reaction solution and centrifuged at 8000 g for 10 min. The supernatant was collected for analysis.
# HCT15-hPDL1 cells = assay: In vitro cytotoxicity study, CellTiter-Glo Luminescent Cell Viability Assay; type: cell-based, Human; conditions: 5 days exposure
# Method: The cell line was named as HCT15-hPDL1. Cells were cultured at 37° C. with 5% C02 using RPMI1640 medium supplemented with 10% FBS, plus 1 μg/ml of puromycin.
# The in vitro anti-tumor activity was determined by CellTiter-Glo® Luminescent Cell Viability Assay (Promega) according to the manufacturer's instructions. Briefly, cells were seeded into 96-well plates at 2×10^3 cells per well in 100 μL complete medium, then incubated at 37° C. with 5% CO2 overnight. Untreated cells served as control. ADCs, antibodies, or payloads in 100 μL medium were added in duplicate at various concentrations with a 2-fold dilution series starting with concentrations of 1 uM, respectively. Cells were exposed to test articles for 5 days. […]. The cell survival rate (%) was calculated using the following formula: sample/control×100%.
# [3] = Stability of SN-38 (lactone / ring-opened form) at different pH; type: physicochemical
# Method: A hydrochloric acid solution with a pH of 4 and a sodium hydroxide solution with a pH of 10 were prepared respectively. 5 mg of SN-38 was dissolved in 5 mL of acetonitrile. The stability of SN-38 in a solution of changing pH (pH=10 to pH=4) was measured by shaking SN-38 at room temperature under pH=10 for 10 min, then adjusting the pH back to 4 and shake at room temperature for 10 min before sampling. SN-38 was then incubated at room temperature overnight (16 h) on a shaker and assayed afterwards.
# [4] = target: T1, TLR9 (HEK-Blue hTLR9-hPDL1 cells) (Homo sapiens, UniProt Q9NR96); assay: In vitro TLR9 activation study, SEAP reporter; type: cell-based; conditions: 18 hr incubation, OD 655 nm; read-out: HEK-Blue hTLR9-hPDL1 cell EC50
# T1 construct: expressed in transfected cells; host or cells: HEK-Blue hTLR9-hPDL1 (HEK-Blue hTLR9 cells carrying lentiviral human PD-L1, NM_014143)
# T1 sequence (Q9NR96 26-1032): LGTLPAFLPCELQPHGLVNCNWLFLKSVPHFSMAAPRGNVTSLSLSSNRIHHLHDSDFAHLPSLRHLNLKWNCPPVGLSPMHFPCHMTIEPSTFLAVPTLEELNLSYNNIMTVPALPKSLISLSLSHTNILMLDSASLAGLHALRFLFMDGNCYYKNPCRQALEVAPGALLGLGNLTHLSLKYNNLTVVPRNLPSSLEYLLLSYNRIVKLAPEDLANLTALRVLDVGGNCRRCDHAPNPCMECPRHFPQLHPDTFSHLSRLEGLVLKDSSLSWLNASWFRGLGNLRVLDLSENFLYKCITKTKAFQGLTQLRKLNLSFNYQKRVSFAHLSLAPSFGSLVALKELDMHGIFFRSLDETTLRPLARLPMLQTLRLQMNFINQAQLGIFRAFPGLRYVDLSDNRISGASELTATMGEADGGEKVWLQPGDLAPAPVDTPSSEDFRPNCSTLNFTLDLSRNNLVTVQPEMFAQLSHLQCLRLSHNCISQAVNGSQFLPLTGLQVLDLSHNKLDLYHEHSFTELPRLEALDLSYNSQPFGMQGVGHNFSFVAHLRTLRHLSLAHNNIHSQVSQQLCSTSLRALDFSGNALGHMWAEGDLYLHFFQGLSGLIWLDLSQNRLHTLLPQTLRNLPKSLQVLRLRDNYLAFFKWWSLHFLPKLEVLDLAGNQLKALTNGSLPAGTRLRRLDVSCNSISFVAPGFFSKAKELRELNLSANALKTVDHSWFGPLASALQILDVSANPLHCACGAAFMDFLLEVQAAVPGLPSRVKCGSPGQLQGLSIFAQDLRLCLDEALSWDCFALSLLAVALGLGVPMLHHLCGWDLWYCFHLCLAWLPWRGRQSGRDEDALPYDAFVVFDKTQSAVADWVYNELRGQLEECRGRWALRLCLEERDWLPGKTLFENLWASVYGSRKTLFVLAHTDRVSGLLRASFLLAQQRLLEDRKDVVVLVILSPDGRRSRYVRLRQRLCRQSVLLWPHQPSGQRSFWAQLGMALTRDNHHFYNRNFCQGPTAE
# From the text: Data were normalized with untreated cells as zero.
# [5] = target: Urokinase-type Plasminogen Activator (uPA) (Homo sapiens, UniProt P00749); assay: uPA cleavage of substrate peptides measured by FRET; type: biochemical; conditions: uPA 7.5 × 10^−3 mg/mL, peptide 0.5 mg/mL, PBS pH=7.4
# Method: (§1) All peptide solutions were finally diluted to 50 μL with 20 mM PBS at pH=7.4.
# [6] = target: Tissue-type Plasminogen Activator (tPA) (Homo sapiens, UniProt P00750); assay: tPA digestion of substrate peptides measured by FRET; type: biochemical
# Sequence of Tissue-type Plasminogen Activator (tPA) (P00750 36-562, species assumed): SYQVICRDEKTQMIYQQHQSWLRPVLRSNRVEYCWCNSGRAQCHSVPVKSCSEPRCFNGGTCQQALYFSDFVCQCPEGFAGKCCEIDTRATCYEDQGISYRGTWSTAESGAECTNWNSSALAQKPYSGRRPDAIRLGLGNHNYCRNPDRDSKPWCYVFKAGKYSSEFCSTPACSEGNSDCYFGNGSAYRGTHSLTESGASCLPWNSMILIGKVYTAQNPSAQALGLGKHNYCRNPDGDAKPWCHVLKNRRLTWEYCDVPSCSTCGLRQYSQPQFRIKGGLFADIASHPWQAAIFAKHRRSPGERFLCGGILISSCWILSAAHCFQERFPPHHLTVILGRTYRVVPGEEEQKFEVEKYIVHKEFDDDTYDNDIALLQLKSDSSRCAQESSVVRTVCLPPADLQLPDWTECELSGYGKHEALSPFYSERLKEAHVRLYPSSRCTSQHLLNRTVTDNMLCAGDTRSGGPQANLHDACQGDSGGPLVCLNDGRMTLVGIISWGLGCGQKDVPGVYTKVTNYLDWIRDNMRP
# Method: as §1
# antibody Ab2B = assay: Biacore affinities between TBP and antibody; type: binding
# Sequence of antibody Ab2B (as listed by the source): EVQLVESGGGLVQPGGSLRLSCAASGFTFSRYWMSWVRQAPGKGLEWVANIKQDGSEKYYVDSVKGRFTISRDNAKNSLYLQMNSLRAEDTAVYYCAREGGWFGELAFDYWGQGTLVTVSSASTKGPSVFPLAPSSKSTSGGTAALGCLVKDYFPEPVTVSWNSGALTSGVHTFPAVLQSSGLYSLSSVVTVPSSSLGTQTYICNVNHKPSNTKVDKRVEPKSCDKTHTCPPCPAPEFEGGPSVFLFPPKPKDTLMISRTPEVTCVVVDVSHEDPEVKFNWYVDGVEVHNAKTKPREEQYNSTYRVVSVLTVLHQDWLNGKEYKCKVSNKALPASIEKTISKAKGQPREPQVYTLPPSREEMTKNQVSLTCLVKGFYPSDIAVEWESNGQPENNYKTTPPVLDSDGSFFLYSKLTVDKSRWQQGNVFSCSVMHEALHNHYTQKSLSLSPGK
# Sequence of antibody Ab2B (as listed by the source partner): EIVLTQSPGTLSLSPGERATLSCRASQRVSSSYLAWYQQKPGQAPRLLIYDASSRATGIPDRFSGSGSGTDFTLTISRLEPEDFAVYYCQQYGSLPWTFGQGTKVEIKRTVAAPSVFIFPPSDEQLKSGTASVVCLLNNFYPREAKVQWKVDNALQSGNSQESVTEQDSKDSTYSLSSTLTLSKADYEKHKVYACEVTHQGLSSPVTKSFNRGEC
# Method: Anti-human Fab was ligated to Biacore chips at pH 4.5. […] TBPs were flowed through the chip as analytes at 30 μL/min. 10 mM glycine at pH 1.5 was used for regeneration of the chip. Conditions were optimized as needed.
# [7] = alkaline conditions for 10 minutes, then acidic conditions before testing
# [8] = pH 10 to pH 4, after incubation overnight (16 h)
compound,measurement,setting,value
"CCc1c2c(nc3ccc(O)cc13)-c1cc3c(c(=O)n1C2)COC(=O)[C@@]3(CC)OC(=O)N(C)CCN(C)C(=O)OCc1ccc(NC(=O)[C@H](CCCNC(N)=O)NC(=O)[C@@H](NC(=O)CCOCCOCCOCCOCCOCCOCCOCCOCCCNC(=O)CNC(=O)CNC(=O)CN)C(C)C)cc1 [Compound of Formula (2), Glycine3-amido-PEG8-VC-PAB-DMAE-α-hydroxy lactone linked SN38]",CathepsinB digestion (in words),CathepsinB,effectively digested
same,Product released on CathepsinB digestion,CathepsinB,release SN38 derivatives
same,Present in the form of lactones in buffer,"[1]; buffer, less affected by pH",98%
same,Stability in plasma (in words),[2],mainly in the form of lactones in the plasma
same,pIC50,"HCT15-hPDL1 cells; Homo sapiens, 120 h",7.42
"CCc1c2c(nc3ccc(O)cc13)-c1cc3c(c(=O)n1C2)COC(=O)[C@]3(O)CC [SN38, 7-ethyl-10-hydroxy-20(S)-camptothecin]",Present as lactone,[3]; acidic conditions (pH 4),94%
same,Present as lactone ring-opened form,[3]; alkaline conditions (pH 10),92%
same,Lactone ring-opening products,[3]; [7],42%
same,Present in the form of lactone,[3]; [7],56%
same,Lactone ring-opening products,[3]; [8],13%
same,Present in the form of lactone,[3]; [8],86%
same,pIC50,"HCT15-hPDL1 cells; Homo sapiens, 120 h",7.95
"CpGB: CpG ODN CpGB, used as positive control and as component of Ab3A ADOC (DNA TCGAACGTTCGAACGTTCGAACGTTCGAAT; DNA, all phosphorothioate, methylation of C not given here)",pEC50,[4],4.94
"GSGRNAQV [SEQ ID NO: 54, uPA substrate peptide]",Fluorescence Intensity Time to Reach Plateau,[5],1.4 h
same,tPA digestion (in words),[6]; tPA […]10^−2 mg/mL,digested
Glycine3-amido-PEG8-VC-PAB-DMAE-phenol linked SN38 [Compound of Formula (1)],CathepsinB digestion (in words),CathepsinB,effectively digested
same,Product released on CathepsinB digestion,CathepsinB,release SN38
same,Present in the form of lactones,[1]; acidic conditions (pH 5 buffer),88%
same,Present as lactones in the form of ring opening,[1]; alkaline conditions (pH 9 buffer),92%
same,Present in the form of lactones,"[1]; alkaline conditions for 10 minutes, then acidic conditions (pH 9 to 5)",98%
same,Stability in plasma (in words),[2],partially hydrolyzed in plasma
same,pIC50,HCT15-hPDL1 cells,< 6.52
"LGGSGRNAQVRLE [SEQ ID NO: 53, uPA substrate peptide]",Fluorescence Intensity Time to Reach Plateau,[5],1.6 h
"LGGSGRSANAILE [SEQ ID NO: 52, uPA substrate peptide]",Fluorescence Intensity Time to Reach Plateau,[5],1.4 h
same,tPA digestion (in words),[6]; tPA 7.5×10^−3 mg/mL,mildly digested
same,tPA digestion (in words),[6]; tPA […]10^−2 mg/mL,digested
LSGRSDNH [SEQ ID NO: 50],Fluorescence Intensity Time to Reach Plateau,[5],1.7 h
SEQ ID NO: 151 ([PEG12′]RSQSRSRYYRQRQRSRRRRRRS),Binding to Ab2B (in words),antibody Ab2B,did not bind to Ab2B
SGRSA [SEQ ID NO: 51],Fluorescence Intensity Time to Reach Plateau,[5],1.8 h
same,tPA digestion (in words),[6]; tPA 7.5×10^−3 mg/mL,mildly digested
same,tPA digestion (in words),[6]; tPA […]10^−2 mg/mL,digested
